Blank lines part the entries; values can stand above or below the compound they belong to.
Tests used:
[1] = system: SOL muscle of the hind-limb of a mouse; test: Muscle fatigability of SOL muscle separated from fed mice (FIG. 7); assay type: in vivo; details: 150 Hz, 100 V, stimulation every 2 seconds for 30 seconds
Experimental: (§1) The SOL muscle was separated from a female mouse (which weighs about 20 g) aged about 3 months. The mouse was anesthetized by sodium pentobarbital injection (100 mg/kg body weight). The SOL muscle, which is a type I muscle, was separated by paying attention to each hind-limb of the mouse while maintaining ligaments from both hind-limbs without damaging the SOL muscle. Then, the separated SOL muscle was put in an oxygen-treated Ringer's solution (118 mM NaCl, 4.75 mM KCl, 2.5 mM CaCl2, 1.18 mM MgSO4, 1.18 mM NaH2PO4, 24.8 mM NaHCO3, 10 mM glucose, and 0.02 g/l tubocurarine chloride, 25° C., pH 7.4) (Sigma Aldrich), set, and stabilized. One side of the separated SOL muscle was filled with the Ringer's solution to fix the separated SOL muscle on a tissue bath with smooth oxygen supply while the other side of the separated SOL muscle was fixed on a FT03 isometric force transducer (Grass Instruments, West Warwick, USA). Here, the muscle twitching was adjusted according to the intensity of the electric field stimulation. […] Here, the muscle contractility value (mN) represents the muscle twitch contraction.

[2] = system: phosphorylated FOXO1-p (Ser256); test: Factors of atrophy: western blot of FOXO1-p in C2C12 cells (FIG. 4); assay type: cell-based, mouse; details: C2C12, 0.1, 1, 20 μM dapsone 12 hours, then 1 μM dexamethasone 2 hours
Experimental: (§2) A C2C12 cell line (mouse gastrocnemius muscle, ATCC®CRL-1772™) was inoculated in a 10% FBS/DMEM culture medium in a 60 mm culture dish. When the cells were grown to about 70% confluency in a 5% CO2 incubator at a temperature of 37° C., the culture medium was changed to a 2% FBS/DMEM culture medium to allow complete differentiation after incubation for 4 days. The C2C12 cell line is a mouse myoblast cell line obtained through continuous culture of myoblasts that are cultured from the gastrocnemius muscle of C3H mice. […] Here, 1 μM of dexamethasone was added thereto and cultured together for 2 hours as described above.
(§3) After the medium was removed from the culture and the cells were collected therefrom, 500 μl of an RIPA lysis buffer (including 20 mM Tris-HCl (pH 7.5), 150 mM NaCl, 1 mM Na2EDTA, 1 mM EGTA, 1% NP-40, 1% sodium deoxycholate, 2.5 mM sodium pyrophosphate, 1 mM beta-glycerophosphate, 1 mM Na3VO4, and 1 μg/ml leupeptin) was added for lysing the cells. […]

[3] = system: phosphorylated Akt-p (Ser473); test: Factors of atrophy: western blot of Akt-p in C2C12 cells (FIG. 4); assay type: cell-based, mouse; details: C2C12, 0.1, 1, 20 μM dapsone 12 hours, then 1 μM dexamethasone 2 hours; concentration-dependent
Experimental: as §2, §3

Atrogin-1 mRNA = Atrogin-1 mRNA level by real time PCR in C2C12 cells (FIG. 5A); assay type: cell-based, mouse; details: C2C12, 20 μM dapsone and 1 μM dexamethasone, 24 hours; normalized to GAPDH mRNA
Experimental: (§4) Here, 1 μM of dexamethasone was added thereto and incubated for 24 hours. Then, the amounts of the expressed mRNA of the Atrogin-1 and MuRF-1 among the C2C12 cells were confirmed. Here, the complete RNA was separated by using a Trizol reagent (Invitrogen). The analysis of the mRNAs of Atrogin-1 and MuRF-1 was performed by using a real time […] instrument, BioRad), which is a device for measuring reverse transcription and SYBR Green. The resulting amounts then normalize to the amount of GAPDH mRNA. The amplification of Atrogin-1, MuRF-1, and GAPDH mRNAs was performed by using an oligonucleotide primer set of SEQ ID NOS: 1 and 2, an oligonucleotide primer set of SEQ ID NOS: 3 and 4, and an oligonucleotide primer set of SEQ ID NOS: 5 and 6.

MURF-1 mRNA = test: MuRF-1 mRNA level by real time PCR in C2C12 cells (FIG. 5A); assay type: cell-based, mouse; details: C2C12, 20 μM dapsone and 1 μM dexamethasone, 24 hours; normalized to GAPDH mRNA
Experimental: as §4

Atrogin-1 = Atrogin-1 protein level by western blot in C2C12 cells (FIG. 5B); assay type: cell-based, mouse; details: C2C12, 0.1, 1 or 20 μM dapsone and 1 μM dexamethasone; concentration-dependent
Experimental: as §2, with “for 24” for “for 2”
(§5) After the medium was removed from the culture and the cells were collected therefrom, 500 μl of an RIPA lysis buffer was added for lysing the cells. Then, the resulting lysates were subjected to electrophoresis and western blot analysis with respect to Atrogin-1, MuRF-1, and α-tubulin. A primary antibody used in the western blot analysis was a rabbit anti-Atrogin-1 antibody (ECM Bioscience), a MuRF-1 antibody (GeneTax), and α-tubulin (Cell Signaling Technology, USA) antibody, and a secondary antibody used in the western blot analysis was an HRP-conjugated anti-rabbit antibody (Jackson ImmunoResearch).

MURF-1 = test: MuRF-1 protein level by western blot in C2C12 cells (FIG. 5B); assay type: cell-based, mouse; details: C2C12, 0.1, 1 or 20 μM dapsone and 1 μM dexamethasone; concentration-dependent
Experimental: as §2, with “for 24” for “for 2”
as §5

[4] = system: SOL muscle of the hind-limb of a mouse; details: mouse fed 4 mg/kg dexamethasone and 2 mg/kg dapsone for 3 weeks, 0.2 Hz (100 V)
Experimental: as §1

degree of the muscle fatigability ([1]; upon intake of dexamethasone): increased
Structure (SMILES): C[C@@H]1C[C@H]2[C@@H]3CCC4=CC(=O)C=C[C@]4(C)[C@@]3(F)[C@@H](O)C[C@]2(C)[C@@]1(O)C(=O)CO [dexamethasone]

Structure (SMILES): Nc1ccc(S(=O)(=O)c2ccc(N)cc2)cc1 [dapsone, 4-[(4-aminobenzene)sulfonyl]aniline]
amount of the FOXO1-p protein [2]: decreased | amount of the Akt-p [3]: increased | mRNA level of Atrogin-1 (Atrogin-1 mRNA): significantly decreased | mRNA level of MURF-1 (MURF-1 mRNA): significantly decreased | protein level of Atrogin-1 (Atrogin-1): significantly decreased | protein level of MURF-1 (MURF-1): significantly decreased | increase of twitch contractility compared with mouse fed on dexamethasone [4]: 43.7% | decrease of muscle fatigability compared with intake of only dexamethasone ([1]; intake of both dexamethasone and dapsone): 20.3%
